Values of other authors, collected in US11268059B2, “Apparatuses, systems, and methods for culturing cells” (eXo Cell, LLC, priority 2015, dated 2022).

Experiments:
[1] = test system: obese, diabetic yellow KK mice
BAT = conditions: humans
[2] = test system: isolated adipocytes and differentiated adipocytes (diffAds)
ex vivo human adipocytes = conditions: Ang II stimulation

In the case of C[C@H](Cc1ccc2c(c1)OC(C(=O)[O-])(C(=O)[O-])O2)NC[C@H](O)c1cccc(Cl)c1.[Na+].[Na+] [CL-316243], the effect on obesity [1] is listed as “ameliorated obesity”.

For O=S(=O)(Nc1ccc(CCNC[C@H](O)c2cccnc2)cc1)c1ccc(-c2nc(-c3ccc(C(F)(F)F)cc3)cs2)cc1 [L-796568], the anti-obesity effects (obese human males) is listed as “did not generate notable anti-obesity effects” and the energy expenditure (obese human males) is listed as “improved energy expenditure”.

For Nc1nc(CC(=O)Nc2ccc(CCNC[C@H](O)c3ccccc3)cc2)cs1 [migrabegron], the BAT activation (BAT) is listed as “activates BAT”.

In the case of “angiotensin II (DRVYIHPF; Angiotensin-2; UniProt P01019 25-32, looked up) [Ang II, angiotensin II, component of the renin-angiotensin system]”, the adipogenesis [2] is given as “may induce adipogenesis” and the lipolysis (ex vivo human adipocytes) is given as “inhibited lipolysis”.
